For 3 compounds, IC50 results are on record in ChEMBL document CHEMBL5053539, “THC shows activity against cultured Plasmodium falciparum” (Bioorg Med Chem Lett, 2021).

Test [1] relates to Plasmodium falciparum. Nature of the test: Antiplasmodial activity against chloroquine-sensitive Plasmodium falciparum NF54. In kind it is functional, organism-based.
The next test deals with Hemozoin. Nature of the test: Inhibition of Beta-hematin in Plasmodium falciparum cells assessed as hemozoin formation after 32 hrs by NP40 detergent-mediated assay.
Test [2] deals with Plasmodium falciparum. Nature of the test: Antiplasmodial activity against multidrug-resistant Plasmodium falciparum K1. In kind it is functional, organism-based.

pIC50: −log10 of the molar value.

Consider `C=C(C)[C@@H]1CCC(C)=C[C@H]1c1c(O)cc(CCCCC)cc1O` [CANNABIDIOL], for which the pIC50 is 5.39 in the test on Plasmodium falciparum [1] and 4.29 with Hemozoin.
With `CCN(CC)CCCC(C)Nc1ccnc2cc(Cl)ccc12` (stereo unspecified) [CHLOROQUINE], the pIC50 with Hemozoin was 4.77.
Turning to `CCCCCc1cc(O)c2c(c1)OC(C)(C)[C@@H]1CCC(C)=C[C@@H]21` [DRONABINOL], the pIC50 was 6.10 in the test with Plasmodium falciparum [1], 6.14 in the test on Plasmodium falciparum [2] and 4.95 with Hemozoin.

In general, pIC50 refers to −log10 of the IC50, conventionally taken in molar units.
